Like-named read-outs stand apart in the source and are kept apart here.
What was measured:
[1] = system: Skov-3X; assay: Growth inhibition of ovarian cancer cells, Skov-3X; type: cell-based; details: ovarian cancer cell line
Procedure: (§1) Test compounds are assayed for growth inhibition ability against two 2 ovarian cancer cell lines. IC50 values for test compounds are determined.

[2] = Pharmacokinetics in mice; details: mouse, in vivo, approximate values
Procedure: The pharmacokinetics of test compounds are evaluated in mice using conventional methods, using oral (25 mg/kg), intraperitoneal (25 mg/kg), and intravenous routes (5 mg/kg) of administration. The following approximate Cmax (ng/mL) values for test compounds are determined.

[3] = system: pGF-NFκB in Panc1 cells; assay: NFκB luciferase reporter assay in Panc1 pancreatic cancer cells; type: cell-based; details: Homo sapiens, PANC-1; luciferase activity 40 hrs after treatment; stable pGF-NFκB; read-out: Panel IC50
Procedure: (§2) Using lentiviral transcriptional reporter vectors, pGreenFire-NFkB, and pGreenFire-mCMV (negative control), from System Biosciences Inc. (Mountainview, Calif.), HEK293-T cells (Lonza, Inc. Allendale, N.J.) are transfected with the constructs and the media containing the viral supernatants is collected. To generate stably expressing reporter cell lines, cancer cell lines are infected with the viral supernatant and the cells are selected with puromycin ([…]) for 5 days. For the experiments, test compound is added and left on the cells before being assayed for luciferase activity. SKOV-3X, Panc1, and SF767 cells with the stable pGF-NFκB are treated with test compounds and assayed 40 hrs later for luciferase activity. Panc1 is a pancreatic cancer cell line; SF767 is the glioma cell line. IC50 values for test compounds are determined.

[4] = system: Hey-C2; assay: Growth inhibition of ovarian cancer cells, Hey-C2; type: cell-based; details: ovarian cancer cell line
Procedure: as §1

[5] = system: pGF-NFκB in SF767 cells; assay: NFκB luciferase reporter assay in SF767 glioma cells; type: cell-based; details: SF767 glioma cell line; luciferase activity 40 hrs after treatment; stable pGF-NFκB
Procedure: as §2

[6] = system: PaCa-2 cells; assay: Pancreatic cancer cell xenograft; type: in vivo; details: orally 25 mg/kg twice daily for 18 days; PaCa-2 s.c. in NOD/SCID mice; FIG. 1
Procedure: PaCa-2 cells (2.5×10^6) in 0.2 mL of DMEM media were implanted s.c. into the right flanks of NOD/SCID mice. Test compounds are dissolved in 4% CremophorEL:EtOH (1:1)/saline solution or methylcellulose (0.5%, Sigma). When tumor volumes are greater than about 100 mm^3, test compounds are administered, such as orally, twice daily, 8 hours apart, at 25 mg/kg for 10 to 18 days (5 days on 2 days off schedule). Tumors are measured biweekly and followed for approximately 6 weeks. Tumor volumes are monitored by caliper measurement [tumor volume=length×(perpendicular width)2×0.5] and the average tumor volume in mm^3 for each treatment group is plotted. Treatment corresponds to days 1 to 15. Average tumor volume±SE for the vehicle compared to test compounds (n=7) are analyzed by statistical analysis. Additional details are described in Fishel et al. Mol Cancer Ther. 2011 September; 10(9):1698-708.

[7] = target: Ape1 (Homo sapiens, UniProt P27695); assay: Redox EMSA assay; type: biochemical; details: electrophoresis, 0.02 mM DTT
Procedure: Conventional electrophoresis measuring Ape1 expression with 0.02 mM DTT is used to evaluate test compounds. […] Additional details are described in Fishel et al. Mol Cancer Ther. 2011 September; 10(9):1698-708 & Luo et al., Antioxid Redox Signal. 2008 November; 10(11):1853-67.

[8] = system: NFkB; assay: Ape1/Ref1 transcription factor activation (NFkB transactivation); type: cell-based; details: Hey-C2, SF767, Panc1, and Skov-3X cell lines
Source text: The DNA base excision-repair pathway is responsible for the repair of DNA damage caused by oxidation/alkylation and protects cells against the effects of endogenous and exogenous agents. Removal of the damaged base creates a baseless (AP) site. AP endonuclease1 (Ape1) acts on this site to continue the BER-pathway repair. Failure to repair baseless sites leads to DNA strand breaks and cytotoxicity. In addition to the repair role, Ape1 also functions as a major redox-signaling factor to reduce and activate transcription factors such as AP1, p53, HIF-1alpha, and others that control the expression of genes important for cell survival and cancer promotion and progression. Thus, the Ape1 protein interacts with proteins involved in DNA repair, growth-signaling pathways, and pathways involved in tumor promotion and progression. Test compounds are evaluated for activity in decreasing transactivation of transcription factors.

Ape1, sequence (P27695 whole entry): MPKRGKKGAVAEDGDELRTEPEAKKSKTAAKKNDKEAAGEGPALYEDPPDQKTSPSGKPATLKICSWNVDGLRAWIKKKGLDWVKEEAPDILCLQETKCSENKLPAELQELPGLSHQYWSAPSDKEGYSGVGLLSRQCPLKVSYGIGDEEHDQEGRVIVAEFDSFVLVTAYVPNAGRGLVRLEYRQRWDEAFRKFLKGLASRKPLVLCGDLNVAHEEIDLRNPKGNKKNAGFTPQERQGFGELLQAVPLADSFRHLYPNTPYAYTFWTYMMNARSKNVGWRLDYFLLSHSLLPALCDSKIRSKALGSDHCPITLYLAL

SMILES | IC50 [1] [µM] | Cmax ([2]; intravenous 5 mg/kg, read-out: IV Cmax) [ng/mL] | Cmax ([2]; ip, intraperitoneal 25 mg/kg, read-out: IP Cmax) [ng/mL] | Cmax ([2]; oral 25 mg/kg, read-out: Oral Cmax) [ng/mL] | IC50 [3] [µM] | IC50 [4] [µM] | IC50 [5] [µM] | tumor volume compared to untreated control [6] | concentration showing significant signal reduction [7] [µM] | Ape1 expression knock-down compared to E3330 ([7]; in vitro) | % transactivation of NFkB [8]
COC1=C(C=C(C)C(=O)N(C)C)C(=O)c2ccccc2C1=O [Example 5a] | 17 | 200 | 2000 | 200 | 5 | 18 | 10 | – | – | – | –
CCCC(=CC1=C(OC)C(=O)c2ccccc2C1=O)C(=O)N(CC)CC [Example 5c] | 30 | – | – | – | 8 | 25 | 18 | – | – | – | –
CCCC(=CC1=C(OC)C(=O)c2ccccc2C1=O)C(=O)NOC [Example 5d] | 10 | – | – | – | 7 | 11 | 10 | – | – | – | –
CCCCCCCCCC(=CC1=C(C)C(=O)C(OC)=C(OC)C1=O)C(=O)NOC [Example 6a] | 38 | – | – | – | 9 | 28 | 12 | significant reduction in tumor volume | 20 | improved expression knock-down compared to E3330 | significant decrease
CCCCCCCCCC(=CC1=C(C)C(=O)C(OC)=C(OC)C1=O)C(=O)N(C)OC [Example 6b] | 32 | – | – | – | 10 | 22 | 18 | – | – | – | –
CCCCCCCCC/C(=C\C1=C(C)C(=O)C(OC)=C(OC)C1=O)C(=O)O [Example E3330, reference compound] | ~100 | – | – | – | 52 | ~100 | 80 | – | 30 | – | –
